In US12528819B2 (priority 2016, dated 2026) one finds activation data, which are given here for 45 compounds.

In the assay the target is T1, α5β2γ2 subtype GABAAR (Homo sapiens, UniProt P18507+P31644).
T1 construct: expressed in transfected cells
T1 sequence (P31644 32-462): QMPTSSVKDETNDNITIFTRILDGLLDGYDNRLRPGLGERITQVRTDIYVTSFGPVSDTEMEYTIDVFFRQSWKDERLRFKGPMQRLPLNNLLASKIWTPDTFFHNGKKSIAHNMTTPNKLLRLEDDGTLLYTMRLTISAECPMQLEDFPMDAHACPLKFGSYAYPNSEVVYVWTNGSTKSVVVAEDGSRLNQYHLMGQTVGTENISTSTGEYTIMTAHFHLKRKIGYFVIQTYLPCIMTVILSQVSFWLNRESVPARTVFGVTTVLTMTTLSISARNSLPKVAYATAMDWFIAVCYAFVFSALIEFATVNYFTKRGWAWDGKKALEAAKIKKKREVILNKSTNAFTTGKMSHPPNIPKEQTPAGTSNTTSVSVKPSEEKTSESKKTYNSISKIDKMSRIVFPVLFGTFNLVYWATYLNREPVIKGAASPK
T1 sequence (P47870 25-512 partner limits assumed): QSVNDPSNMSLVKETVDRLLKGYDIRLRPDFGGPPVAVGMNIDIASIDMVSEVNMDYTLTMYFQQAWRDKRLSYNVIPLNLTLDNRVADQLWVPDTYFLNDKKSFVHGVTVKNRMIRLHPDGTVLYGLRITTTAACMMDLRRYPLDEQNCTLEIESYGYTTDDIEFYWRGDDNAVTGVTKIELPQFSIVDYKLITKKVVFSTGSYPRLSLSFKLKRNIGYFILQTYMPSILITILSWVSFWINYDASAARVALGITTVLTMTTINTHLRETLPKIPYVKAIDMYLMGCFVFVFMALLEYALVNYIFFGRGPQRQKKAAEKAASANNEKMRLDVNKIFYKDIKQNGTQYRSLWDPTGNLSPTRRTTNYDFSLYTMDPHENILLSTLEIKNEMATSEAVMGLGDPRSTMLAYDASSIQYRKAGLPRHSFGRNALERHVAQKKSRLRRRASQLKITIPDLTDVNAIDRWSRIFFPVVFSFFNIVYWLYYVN
T1 sequence (P18507 40-467 limits assumed): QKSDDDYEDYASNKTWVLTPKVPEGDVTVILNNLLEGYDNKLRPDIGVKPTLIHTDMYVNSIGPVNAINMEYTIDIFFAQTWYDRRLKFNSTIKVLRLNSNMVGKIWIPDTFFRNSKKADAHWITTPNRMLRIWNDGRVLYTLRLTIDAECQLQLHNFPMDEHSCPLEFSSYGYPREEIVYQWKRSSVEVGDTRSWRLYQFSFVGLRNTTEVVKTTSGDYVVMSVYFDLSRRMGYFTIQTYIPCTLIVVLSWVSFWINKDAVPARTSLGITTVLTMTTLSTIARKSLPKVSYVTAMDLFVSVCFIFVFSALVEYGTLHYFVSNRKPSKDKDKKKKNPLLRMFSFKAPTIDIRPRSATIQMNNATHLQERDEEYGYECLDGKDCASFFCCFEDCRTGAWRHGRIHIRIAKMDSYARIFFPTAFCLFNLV
The assay is described as follows: Positive allosteric modulator activity: potentiation of EC20 GABA current in oocytes. The following applies: read-out: GABA α5 Functional Data (potentiation), @ 100 nM, reported as ranges. The assay is classed as cell-based. As for the experimental part:
(B) Positive Allosteric Modulator Activity of Test Compounds on α5β2γ2 Subtype GABAAR
On day 1, 1 ng/32 nL of GABAA α5β2γ2 cDNA was injected into one oocyte. Test starts on day 2. The cDNA injected to the oocytes was a mix of alpha, beta and gamma, their ratio is 1:1:10 (by weight) and the total weight of the mixed 3 subunits to be injected in one oocyte was 1 ng in 32 nl volume. The injected oocytes can also be tested on day 3. In such case, the cDNA amount injected to the oocytes should be reduced by 20%.
Compounds of the present invention were tested using the following procedures.
• 1). 8 oocytes were placed in 8 chambers of OpusXpress and superfused with Modified Barth's Saline (MBS) at 3 mL/min. Glass electrodes back-filled with 3M KCl (0.5-3 megaohms) were used.
Control test (Diazepam or methyl 3,5-diphenylpyridazine-4-carboxylate) • 1). New oocytes was used to run new test. • 2). […] Oocytes were washed with MBS for 5-10 min. • 4). […] Itest was divided by IGABA to obtain potentiation (%). Test Compounds at Multiple Doses • 1). Repeat the above steps 1), 2) and 3) in the control test. • 2). […] Divide Itest by IGABA to obtain potentiation (%). • 3). Discard all tested oocytes, new oocytes were used and the above steps 1) and 2) were repeated to test second concentration of the same compound. Each oocyte was used for only one concentration test for a single test compound. The steps were repeated for other test compounds.

Take `C#Cc1ccc2c(c1)-c1nnc(COC)n1Cc1c(-c3nc(-c4ccccc4)co3)ncn1-2` [Compound 302]: the activation at 0.1 µM fell in the range of 5 to 20%.
To `FC(F)(F)COCc1nnc2n1Cc1c(C3=N[C@@H](c4ccccc4)CO3)ncn1-c1ccc(Cl)cc1-2` [Compound 304] belongs 5 to 20%; to `CCOC(=O)c1ncn2c1Cn1c(COCC(F)(F)F)nnc1-c1cc(Cl)ccc1-2` [Compound 308], 5 to 20%; to `Cc1ccccc1C#Cc1ncn2c1Cn1c(COC(C)C)nnc1-c1cc(Cl)ccc1-2` [Compound 310], 5 to 20%.
To `CCOCc1nnc2n1Cc1c(C#Cc3ccccc3C)ncn1-c1ccc(Cl)cc1-2` [Compound 311] belongs 5 to 20%; to `FC(F)(F)COCc1nnc2n1Cc1c(-c3nc(-c4ccccc4)co3)ncn1-c1ccc(Cl)cc1-2` [Compound 313], 20 to 50%; to `COCc1nnc2n1Cc1c(C3=N[C@@H](c4ccccc4F)CO3)ncn1-c1ccc(Cl)cc1-2` [Compound 319], 20 to 50%.
To `COCc1nnc2n1Cc1c(C3=N[C@@H](c4ccc(F)cc4)CO3)ncn1-c1ccc(Cl)cc1-2` [Compound 320] belongs 20 to 50%; to `COCc1nnc2n1Cc1c(-c3nc(-c4ccccc4F)co3)ncn1-c1ccc(Cl)cc1-2` [Compound 323], 20 to 50%; to `COCc1nnc2n1Cc1c(-c3nc(-c4ccc(F)cc4)co3)ncn1-c1ccc(Cl)cc1-2` [Compound 324], 20 to 50%.
In the case of `CCOCc1nnc2n1Cc1c(C3=N[C@@H](c4ccc(F)cc4)CO3)ncn1-c1ccc(Cl)cc1-2` [Compound 325], the activation at 0.1 µM lay within 20 to 50%.
With `CC(C)OCc1nnc2n1Cc1c(C3=N[C@@H](c4ccc(F)cc4)CO3)ncn1-c1ccc(Cl)cc1-2` [Compound 326], the activation at 0.1 µM was 20 to 50%.
To `C#Cc1ncn2c1Cn1c(COC)nnc1-c1cc(OC)ccc1-2` [Compound 328, 5-ethynyl-15-methoxy-9-(methoxymethyl)-2,4,8,10,11-pentaazatetracyclo[11.4.0.0^2,^60.0^8,^12]heptadeca-1(17),3,5,9,11,13,15-heptaene] belongs 5 to 20%; to `COCc1nnc2n1Cc1c(C3=N[C@@H](c4ccccc4C)CO3)ncn1-c1ccc(Cl)cc1-2` [Compound 330], 20 to 50%; to `COCc1nnc2n1Cc1c(C3=N[C@@H](c4ccccc4OC)CO3)ncn1-c1ccc(Cl)cc1-2` [Compound 331], 5 to 20%.
To `COCc1nnc2n1Cc1c(C3=N[C@@H](c4ccc(OC)cc4)CO3)ncn1-c1ccc(Cl)cc1-2` [Compound 332] belongs 5 to 20%; to `COCc1nnc2n1Cc1c(C3=N[C@@H](c4cccc(OC)c4)CO3)ncn1-c1ccc(Cl)cc1-2` [Compound 333], 5 to 20%.
To `COCc1nnc2n1Cc1c(C3=N[C@@H](c4ccc(Cl)cc4)CO3)ncn1-c1ccc(Cl)cc1-2` [Compound 334] belongs 20 to 50%; to `COCc1nnc2n1Cc1c(C3=N[C@@H](c4cc(F)ccc4F)CO3)ncn1-c1ccc(Cl)cc1-2` [Compound 335], 5 to 20%; to `COCc1nnc2n1Cc1c(C3=N[C@@H](c4ccc(C(F)(F)F)cc4)CO3)ncn1-c1ccc(Cl)cc1-2` [Compound 337], 20 to 50%.
Turning to `CC#Cc1ncn2c1Cn1c(COC)nnc1-c1cc(Cl)ccc1-2` [Compound 339], the activation at 0.1 µM lay in the range of 20 to 50%.
As for `COCc1nnc2n1Cc1c(C3=N[C@H](c4ccccc4)CO3)ncn1-c1ccc(OC)cc1-2` [Compound 340], the activation at 0.1 µM was in the range of 20 to 50%.
To `CCOCc1nnc2n1Cc1c(-c3ncco3)ncn1-c1ccc(Cl)cc1-2` [Compound 341] belongs 5 to 20%.
To `COCc1nnc2n1Cc1c(C3=N[C@@H](c4ccccc4)CO3)ncn1-c1ccc(OC)cc1-2` [Compound 343] belongs 20 to 50%; to `CCC#Cc1ncn2c1Cn1c(COC)nnc1-c1cc(Cl)ccc1-2` [Compound 345], 20 to 50%.
To `COCc1nnc2n1Cc1c(C#CCc3ccccc3)ncn1-c1ccc(Cl)cc1-2` [Compound 346] belongs 20 to 50%; to `Clc1ccc2c(c1)-c1nnc(COc3ccccc3)n1Cc1c(-c3ncco3)ncn1-2` [Compound 349], 5 to 20%.
On to `Clc1ccc2c(c1)-c1nnc(COCc3ccccc3)n1Cc1c(-c3ncco3)ncn1-2` [Compound 350], for which the activation at 0.1 µM is more than 50%.
As to `C#Cc1ncn2c1Cn1c(COCc3ccccc3)nnc1-c1cc(Cl)ccc1-2` [Compound 351], the activation at 0.1 µM lay within 20 to 50%.
To `C#Cc1ncn2c1Cn1c(COc3ccccc3F)nnc1-c1cc(Cl)ccc1-2` [Compound 353, 15-chloro-5-ethynyl-9-(2-fluorophenoxymethyl)-2,4,8,10,11-pentaazatetracyclo[11.4.0.0^2,^60.0^8,^12]heptadeca-1(17),3,5,9,11,13,15-heptaene] belongs more than 50%; to `CC#Cc1ncn2c1Cn1c(COc3ccccc3F)nnc1-c1cc(Cl)ccc1-2` [Compound 354], 20 to 50%; to `Fc1ccccc1OCc1nnc2n1Cc1c(-c3ncco3)ncn1-c1ccc(Cl)cc1-2` [Compound 355], 20 to 50%.
To `C#Cc1ncn2c1Cc1cnnn1-c1cc(Cl)ccc1-2` [Compound 356] belongs more than 50%; to `Clc1ccc2c(c1)-n1nncc1Cc1c(C3=N[C@@H](c4ccccc4)CO3)ncn1-2` [Compound 357], 20 to 50%.
As to `Clc1ccc2c(c1)-n1nncc1Cc1c(C3=N[C@H](c4ccccc4)CO3)ncn1-2` [Compound 358], the activation at 0.1 µM was 20 to 50%.
To `Fc1ccc([C@H]2COC(c3ncn4c3Cc3cnnn3-c3cc(Cl)ccc3-4)=N2)cc1` [Compound 359] belongs 5 to 20%.
As for `Fc1ccccc1[C@H]1COC(c2ncn3c2Cc2cnnn2-c2cc(Cl)ccc2-3)=N1` [Compound 360], the activation at 0.1 µM was 20 to 50%.
On to `Clc1ccc([C@H]2COC(c3ncn4c3Cc3cnnn3-c3cc(Cl)ccc3-4)=N2)cc1` [Compound 361], for which the activation at 0.1 µM was in the range of 20 to 50%.
To `FC(F)(F)c1ccc([C@H]2COC(c3ncn4c3Cc3cnnn3-c3cc(Cl)ccc3-4)=N2)cc1` [Compound 362] belongs 20 to 50%; to `COc1ccc2c(c1)-n1nncc1Cc1c(C3=N[C@@H](c4ccc(F)cc4)CO3)ncn1-2` [Compound 367], 5 to 20%.
To `COc1ccc2c(c1)-n1nncc1Cc1c(C3=N[C@@H](c4ccc(Cl)cc4)CO3)ncn1-2` [Compound 368] belongs 5 to 20%; to `CC(C)c1coc(-c2ncn3c2Cc2cnnn2-c2cc(Cl)ccc2-3)n1` [Compound 387], 20 to 50%.
To `Clc1ccc2c(c1)-n1nncc1Cc1c(C#Cc3ccccc3)ncn1-2` [Compound 395] belongs 5 to 20%; to `Cc1ccccc1C#Cc1ncn2c1Cc1cnnn1-c1cc(Cl)ccc1-2` [Compound 396], 5 to 20%; to `COc1ccc(C#Cc2ncn3c2Cc2cnnn2-c2cc(Cl)ccc2-3)cc1` [Compound 397], 20 to 50%.
